According to US4638047A, “Enzyme inhibition” (priority 1983, dated 1987):
Read-outs that look alike come from different tables or passages of the source. Residues, ends and D or L forms follow the SMILES beside them.

Experiments:
human thrombin = target: T1, human thrombin (Homo sapiens, UniProt P00734); test: Inhibition of human thrombin hydrolysing the chromogenic substrate S-2238 (Ki by Dixon plot); assay type: biochemical
T1 construct: forms a lipoprotein complex with prothrombin (factor II) and cleaves it to form thrombin (factor IIa) itself
Procedure: (a) Inhibition of human thrombin hydrolysing the chromogenic substrate S-2238 (for details of the method, see M. F. Scully and V. V. Kakkar, Clin. Chim. Acta 1977.79.595). Series of measurements were carried out using a number of different inhibitor concentrations and at least two different substrate concentrations. The inhibitory constant Ki was determined graphically, using a Dixon plot (M. Dixon, Biochem. J. 1953.55.170)

[1] = In vivo half life in plasma
Procedure: (§1) These tests were carried out in rabbits, using between 0.1-4 mg/Kg of the inhibitor and comparing the KCCT or the thrombin clotting time in blood samples taken before and at various time intervals after the administration of inhibitors.

[2] = rabbit
Procedure: as §1

Row | Compound | Ki (human thrombin) [µM] | in vivo half life in plasma [1] [min] | in vivo half life in plasma [2] [min]
1 | CC(C)(C)OC(=O)N[C@H](Cc1ccccc1)C(=O)N1CCC[C@H]1C(=O)N[C@@H](CCCNC(=N)N)CNCC(=O)N1CCC[C@H]1C(=O)O [Example H-172] | 112 | – | –
2 | CCNC(=O)[C@@H](NC(=O)[C@H](CCCNC(=N)N)NC(=O)[C@@H]1CCCN1C(=O)CCC(=O)[C@H](CCCNC(=N)N)NC(=O)[C@@H]1CCCN1C(=O)[C@H](N)Cc1ccccc1)C(C)C [Example H-200] (HELM PEPTIDE1{[dF].P.[N=C(N)NCCC[C@H](N[*:1])C(=O)CCC(=O)[*:2]].P.R.V.[CCN[*:1]]}$$$$V2.0) | 3 | – | –
3 | heparin | – | 15 | –
4 | CCNC(=O)[C@@H]1CCCN1C(=O)CCC(=O)[C@@H](CCCNC(=N)N)NC(=O)[C@@H]1CCCN1C(=O)[C@@H](Cc1ccccc1)NC(=O)OC(C)(C)C [Example H-170] | 68 | – | –
5 | CCNC(=O)[C@@H]1CCCN1C(=O)CCC(=O)[C@H](CCCNC(=N)N)NC(=O)[C@@H]1CCCN1C(=O)[C@H](N)Cc1ccccc1 [Example H-179] | 6 | – | 18
